Experimental data from US5948786A, “Piperidinylpyrimidine derivatives” (Sumitomo Pharmaceuticals Company, Limited, priority 1996, dated 1999).

Key:
Type in all cases: cell-based
[1] = test system: TNF α production from human peripheral blood mononuclear cells (PBMC); assay: Inhibitory activity of compound on TNF α production from PBMC
Procedure: TNF α was induced by 10 μg/ml of LPS (E. coli O111B4, DIFCO, Detroit, Mich., USA) the cells were cultured for 18 hours at 37° C. A compound of the present invention was dissolved in DMSO and added to the culture simultaneously with LPS. […] Each well of the plate first was incubated at room temperature with biotinylated anti-mouse TNF α polyclonal antibodies (PharMingen) for 45 minutes, then with peroxidase-conjugated streptavidin (Kirkegaard & Perry Laboratories Inc., Gaitherburg, Md., USA) for 30 minutes. After each incubation, the plate was washed 4 to 8 times with PBS containing 0.2% Tween 20. TMB (Kirkegaard & Perry Laboratories Inc.) was the peroxidase substrate used and, the absorbance of each well was quantified at 450 nm by a microplatereader (Molecular Devices Corp., CA, USA). TNF α levels in the supernatant were quantified with rm-TNF α as the standard. Inhibitory activity of TNF α production was also quantified using human peripheral blood mononuclear cells(PBMC) instead of PEC's. Results are shown in table 9, 10, 11, 12, 13, 14, 15, 16, 17, 18, 19 and 20.

[2] = test system: HIV-1 LTR-CAT gene expression in Jurkat cells; assay: PMA induced HIV-1 LTR-CAT gene expression in Jurkat cells; conditions: Homo sapiens, PMA 10 ng/ml, 24 hours
Procedure: (§1) p469, HIV-1 LTR driven CAT and pSV-Tat, Tat-expression vector were kindly provided from Dr. Gary J. Nabel (Nature Vol. 326, 711(1987))
(§2) RPMI 1640 medium (Life Technologies, Grand Island, N.Y., USA) was supplemented with heat-inactivated fetal calf serum (FBS; Sigma, St. Louis, Mo., USA).
(§3) Human T lymphoma cell line, Jurkat, was cultured in medium described above Transfection;
(§4) Introduction of plasmid DNA into cells was carried out according to the method described in Chiang, J. Li et al., Proc. Natl. Acad. Sci. Vol. 92, 5461-5464 (1995). Briefly, the cells were suspended with the medium at 2×10^7 cells/ml followed by addition 1 μg of p469 and 0.5 μg of DEAE-dextran (Sigma). In some experiments the cells were co-transfected with 0.5 μg of pSV-Tat. After 10 minutes incubation at room temperature with occasionally mixing, the cells were pulsed with electroporation apparatus at 140 V. The cells were re-suspended with the fresh medium and cultured for 20 hours at 37° C.
(§5) A compound tested was dissolved in dimethylsulfoxide at 100 mM as a stock solution. The aliquots of the stock solution were kept frozen at -20° C. Jurkat cells transfected with p469 were treated with 10 ng/ml of phorbol 12-myristate 13-acetate (PMA; Sigma) to activate HIV-1-LTR directed CAT gene transcription in the presence of the compound. In the case of cells transfected with p469 and pSV-Tat, they were simply treated with the compound. After the cells were cultured for an additional 24 hours at 37° C., the cells were washed 2 times with phosphate-buffered saline and lysed in 50 mM Tris-HCl plus 15% glycerol with repeated cycles of freeze and thaw. The cell lysates were clarified by centrifugation followed by determination of protein concentration by Bradford method (Bio-Rad, Hercules, Calif., USA). Measurement of a CAT activity in cell lysates was carried out according to a similar method described in Fridovich-Keil J. L. et. al., Cell Growth and Differentiation, Vol. 2, 67-76(1991). Equal amount (30 μg of protein) of cell lysates was incubated at 37° C. with 35 μg of acetyl co-enzyme A (GIBCO/BRL, Grand Island, Mo., USA) and 0.1 μCi of 14C-chloramphenicol (Dupont, NEN Boston, Mass., USA) in […] solution for 2 hours. Acetyl-14C-chloramphenicol was extracted with 9 volumes of ethyl acetate and fractionated on a TLC gel with 1:19 (v/v) in methanol/chloroform. The CAT activity was detected by autoradiography and quantified by an Imaging Densitometer (model GS-700; Bio-Rad).

[3] = test system: Tat induced HIV-1 LTR-CAT gene expression in Jurkat cells; assay: Tat induced HIV-1 LTR-CAT gene expression in Jurkat cells; conditions: Homo sapiens, Tat (pSV-Tat), 24 hours
Procedure: as §1, §2, §3, §4, §5

[4] = test system: TNF α production from mouse macrophages; assay: Inhibitory activity of compound on TNF α Production from mouse macrophages (LPS-induced PEC's); conditions: Macrophage, LPS 10 μg/ml, 18 hours
Summary of the method: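 Thioglycollate-elicited peritoneal macrophages from female BALB/c mice (adherent, 2×10^5 cells/well) were stimulated with 10 μg/ml LPS plus compound (final DMSO below 0.1%) for 18 h at 37°C. Supernatant TNF α was measured by sandwich ELISA (TMB, 450 nm) against a recombinant mouse TNF α standard.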

Compound	inhibition at 30 µM [1] [%]	inhibition at 5 µM [2] [%]	inhibition at 5 µM [3] [%]	inhibition at 30 µM [4] [%]
Nc1nc(C2CCN(C(=O)c3ccc4c(c3)OCO4)CC2)c2ccccc2n1 [Example 65]	46	94	81	
COc1ccc2nc(N)nc(C3CCN(C(=O)c4ccc5c(c4)OCO5)CC3)c2c1 [Example 117]	43	92	36	54
Nc1nc(C2CCN(C(=O)c3ccc4c(c3)OCO4)CC2)c2cc(Cl)ccc2n1 [Example 130]	57	67		100
Nc1nc(-c2ccccc2)cc(C2CCN(C(=O)c3ccc4c(c3)OCO4)CC2)n1 [Example 140]	35	100		72
Nc1nc(-c2ccc(Cl)cc2)cc(C2CCN(C(=O)c3ccc4c(c3)OCO4)CC2)n1 [Example 150]	11	54		100
COc1ccc(-c2cc(C3CCN(C(=O)c4ccc5c(c4)OCO5)CC3)nc(N)n2)cc1 [Example 157]	37	81		84
COc1ccc(Cc2cc(C3CCN(C(=O)c4ccc5c(c4)OCO5)CC3)nc(N)n2)cc1 [Example 210, 2-amino-4-(4-methoxybenzyl)-6-[1-(3,4-methylenedioxybenzoyl)-4-piperidinyl]pyrimidine]	80	81	66	75
Nc1nc(CCc2ccccc2)cc(C2CCN(C(=O)c3ccc4c(c3)OCO4)CC2)n1 [Example 259]	68	25	51	
COc1ccc(Cc2cc(C3CCN(C(=O)OCc4ccccc4)CC3)nc(N)n2)cc1 [Example 274]				49
COc1ccc(Cc2cc(C3CCN(S(=O)(=O)Cc4ccccc4)CC3)nc(N)n2)cc1 [Example 277]				32
Nc1nc(C2CCN(C(=O)NCc3ccccc3)CC2)c2ccccc2n1 [Example 280, 2-amino-4-(1-benzyl-carbamoyl-4-piperidinyl)quinazoline]				34
COc1ccc(Cc2cc(C3CCN(C(=O)NCc4ccccc4)CC3)nc(N)n2)cc1 [Example 283, 2-amino-4-(1-benzylcarbamoyl-4-piperidinyl)-6-(4-methoxyphenylmethyl)pyrimidine]				81
NCCCCCCC(=O)N1CCC(c2nc(N)nc3ccccc23)CC1 [Example 284, 2-amino-4-[1-(7-aminoheptanoyl)-4-piperidinyl]quinazoline]				3
NCCCCCCCC(=O)N1CCC(c2nc(N)nc3ccccc23)CC1 [Example 285, 2-amino-4-[1-(8-aminooctanoyl)-4-piperidinyl]quinazoline]				27
NCCCCCCCCCCC(=O)N1CCC(c2nc(N)nc3ccccc23)CC1 [Example 286, 2-amino-4-[1-(11-aminoundecanoyl)-4-piperidinyl]quinazoline]				67
COc1ccc(Cc2cc(C3CCN(C(=O)CCN)CC3)nc(N)n2)cc1 [Example 287, 2-amino-4-[1-(3-aminopropanoyl)-4-piperidinyl]-6-(4-methoxyphenylmethyl)pyrimidine]				40
COc1ccc(Cc2cc(C3CCN(C(=O)c4ccc5[nH]cnc5c4)CC3)nc(N)n2)cc1 [Example 289]	93			
COc1ccc(Cc2cc(C3CCN(C(=O)c4ccc5[nH]ccc5c4)CC3)nc(N)n2)cc1 [Example 290]	101			

Compound	inhibition at 30 µM [1] [%]	inhibition at 5 µM [2] [%]	inhibition at 5 µM [3] [%]	inhibition at 30 µM [4] [%]
COc1ccc(Cc2cc(C3CCN(C(=O)c4ccc5c(c4)OCCO5)CC3)nc(N)n2)cc1 [Example 291]	88			
COc1ccc(Cc2cc(C3CCN(C(=O)c4ccc(F)c(F)c4)CC3)nc(N)n2)cc1 [Example 292]	66			
COc1ccc(Cc2cc(C3CCN(C(=O)c4ccc(O)c(OC)c4)CC3)nc(N)n2)cc1 [Example 300]	80			
COc1ccc(Cc2cc(C3CCN(C(=O)c4ccc(OC)c(O)c4)CC3)nc(N)n2)cc1 [Example 301]	88			
COc1ccc(Cc2cc(C3CCN(C(=O)c4ccc(O)c(O)c4)CC3)nc(N)n2)cc1 [Example 302, 2-Amino-4-[1-(3,4-dihydroxybenzoyl)-4-piperidinyl]-6-(4-methoxyphenylmethyl) pyrimidine]	86			
Nc1nc(Cc2ccc(Br)cc2)cc(C2CCN(C(=O)c3ccc4c(c3)OCO4)CC2)n1 [Example 303, 2-Amino-4-(4-bromophenylmethyl)-6-[1-(3,4-methylenedioxybenzoyl)-4-piperidinyl]pyrimidine]	92		65	
Nc1nc(Cc2ccccc2)cc(C2CCN(C(=O)c3ccc4c(c3)OCO4)CC2)n1 [Example 304]	83		44	
COc1cccc(Cc2cc(C3CCN(C(=O)c4ccc5c(c4)OCO5)CC3)nc(N)n2)c1 [Example 305]	80		72	
COc1ccc(Cc2cc(C3CCN(C(=O)c4ccc5c(c4)OCO5)CC3)nc(N)n2)cc1OC [Example 306]	85	75	22	
COc1ccc(OC)c(Cc2cc(C3CCN(C(=O)c4ccc5c(c4)OCO5)CC3)nc(N)n2)c1 [Example 307]	81	97	66	
COc1cc(Cc2cc(C3CCN(C(=O)c4ccc5c(c4)OCO5)CC3)nc(N)n2)cc(OC)c1 [Example 308]	87		70	
COc1cc(Cc2cc(C3CCN(C(=O)c4ccc5c(c4)OCO5)CC3)nc(N)n2)cc(OC)c1OC [Example 309]	65		62	
Nc1nc(Cc2ccccc2Cl)cc(C2CCN(C(=O)c3ccc4c(c3)OCO4)CC2)n1 [Example 310]	83		67	
Nc1nc(Cc2ccc(Cl)c(Cl)c2)cc(C2CCN(C(=O)c3ccc4c(c3)OCO4)CC2)n1 [Example 311]	69		63	
Nc1nc(Cc2ccc(Cl)cc2Cl)cc(C2CCN(C(=O)c3ccc4c(c3)OCO4)CC2)n1 [Example 312]	57		65	
Nc1nc(Cc2c(Cl)cccc2Cl)cc(C2CCN(C(=O)c3ccc4c(c3)OCO4)CC2)n1 [Example 313]	91		69	
Nc1nc(Cc2ccc3c(c2)OCO3)cc(C2CCN(C(=O)c3ccc4c(c3)OCO4)CC2)n1 [Example 314]	84		76	
Nc1nc(Cc2ccc(O)cc2)cc(C2CCN(C(=O)c3ccc4c(c3)OCO4)CC2)n1 [Example 315, 2-Amino-4-(4-hydroxyphenylmethyl)-6-[1-(3,4-methylenedioxybenzoyl)-4-piperidinyl] pyrimidine]	86			
